Data reported in patent EP2098226A1, “AKAP-PKA interaction inhibitors for use in the treatment of heart diseases” (Forschungsverbund Berlin e.V., priority 2008, dated 2009).
Where two headings read alike, the source gives them in different places.

Experiments:
RIIα = RIIα (Homo sapiens, UniProt P13861); assay: Biacore: direct binding of substances to covalently immobilised RIIα; details: for Bindungen des Peptids Ht31 und der Substanz an RIIα: RIIα surface incubated with peptide Ht31 and additionally with the substance; for Bindung an RIIα: surfaces covalently coated with RIIα, incubated with the substances
Sequence of RIIα (P13861 whole entry): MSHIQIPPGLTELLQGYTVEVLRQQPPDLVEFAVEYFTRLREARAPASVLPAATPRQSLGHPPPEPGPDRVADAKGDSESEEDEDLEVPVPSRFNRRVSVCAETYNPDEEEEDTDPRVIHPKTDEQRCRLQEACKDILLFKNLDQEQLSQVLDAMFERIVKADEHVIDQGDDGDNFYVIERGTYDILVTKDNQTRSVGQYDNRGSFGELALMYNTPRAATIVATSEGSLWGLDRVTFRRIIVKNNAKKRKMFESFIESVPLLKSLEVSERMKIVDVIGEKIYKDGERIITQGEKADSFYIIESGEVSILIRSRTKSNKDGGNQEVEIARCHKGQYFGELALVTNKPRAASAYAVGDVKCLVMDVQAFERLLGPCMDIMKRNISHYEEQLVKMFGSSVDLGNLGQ
Description: Biacore-Messungen zum Nachweis der Bindung der Substanz 1026 an RIIα. Es wurden Oberflächen durch kovalente Bindung mit RIIα beschichtet und mit der Substanz in den angegebenen Konzentrationen inkubiert.
Die Bindungen des Peptids Ht31 und der Substanz 1026 an RIIα sind additiv. Es wurden Oberflächen durch kovalente Bindung mit RIIα beschichtet und mit dem Peptid Ht31, das an die sog. Dimerisierungs- und docking-Domäne (DD-Domäne) von regulatorischen Untereinheiten der PKA bindet, inkubiert.
Es wurden Oberflächen durch kovalente Bindung mit RIIα beschichtet und mit den Substanzen inkubiert.

[1] = system: neonatalen Kardiomyozyten aus der Ratte; assay: cAMP level in neonatal cardiomyocytes, ELISA-based assay; format: cell-based; details: substances 50 µM in the presence of Isoproterenol 100 nM
Protocol: (§1) Die Substanzen 1025, 1026, 1027 und 1028 steigern in Gegenwart des β-Adrenozeptoragonisten Isoproterenol den cAMP-Spiegel in neonatalen Kardiomyozyten aus der Ratte. Die Zellen wurden unbehandelt belassen, mit Isoproterenol allein (100 nM) oder mit Isoproterenol (100 nM) und den Substanzen (50 µM) inkubiert. Der cAMP-Spiegel wurde durch einen ELISA-basierten Assay bestimmt.

[2] = system: Interaktionen von regulatorischen RII-Untereineinheiten der PKA (RIIα und β) mit AKAP150, dem AKAP Yotiao und AKAP18δ; assay: cAMP-agarose precipitation with Western blot detection of precipitated AKAPs; format: cell-based; details: neonatal cardiomyocytes; FMP-API-1 100 µM; precipitated AKAPs detected by Western blot
Protocol: Die Verbindungen 18882 (FMP-API-1), 1016, 1020 und 1021 (siehe Tabelle 1) hemmen die Interaktionen von regulatorischen RII-Untereineinheiten der PKA (RIIα und β) mit AKAP150, dem AKAP Yotiao und AKAP18δ. Es wurden cAMP-Agarose-Präzipitationen mit neonatalen Kardiomyozyten in Ab- oder Anwesenheit des AKAP-PKA-Interaktionshemmers FMP-API-1 (100 µM), einer Kontrollsubstanz (100 µM) und cAMP (50 mM) durchgeführt. cAMP-Agarose bindet regulatorische Untereinheiten der PKA und deren Bindungspartner, inklusive AKAP. Präzipitierte AKAP wurden mit spezifischen Antikörpern mittels Western Blot detektiert.

[3] = system: AKAP18δ und regulatorischen RIIα- und RIIβ-Untereinheiten; assay: Oligomerisation of AKAP18δ and RII subunits in neonatal cardiomyocytes (cAMP-agarose precipitation, Western blot); format: cell-based; details: neonatal cardiomyocytes incubated with the substances
Description: Neonatale Kardiomyozyten wurden mit den Substanzen in den angegebenen Konzentrationen inkubiert. A. Anschließend wurde eine cAMP-Agarose-Präzipitation und ein Western Blot (WB) zur Detektion von AKAP18δ durchgeführt. Als Negativkontrolle wurde die cAMP-Agarose mit cAMP inkubiert, das die Bindung von R-Untereinheiten an die Agarose verhindert. B. Detektion von RIIβ in Lysaten von neonatalen Kardiomyozyten. C. Detektion von AKAP18δ, RIIα und RIIβ nach Inkubation mit den Substanzen.

PKA [4] = target: PKA (Homo sapiens, UniProt P31323); assay: PKA activation in vitro (Peptag substrate peptide phosphorylation); format: biochemical; details: 1 mM, catalytic subunits with or without RIIβ subunits
Sequence of PKA (Homo sapiens, UniProt P31323) (P31323 whole entry): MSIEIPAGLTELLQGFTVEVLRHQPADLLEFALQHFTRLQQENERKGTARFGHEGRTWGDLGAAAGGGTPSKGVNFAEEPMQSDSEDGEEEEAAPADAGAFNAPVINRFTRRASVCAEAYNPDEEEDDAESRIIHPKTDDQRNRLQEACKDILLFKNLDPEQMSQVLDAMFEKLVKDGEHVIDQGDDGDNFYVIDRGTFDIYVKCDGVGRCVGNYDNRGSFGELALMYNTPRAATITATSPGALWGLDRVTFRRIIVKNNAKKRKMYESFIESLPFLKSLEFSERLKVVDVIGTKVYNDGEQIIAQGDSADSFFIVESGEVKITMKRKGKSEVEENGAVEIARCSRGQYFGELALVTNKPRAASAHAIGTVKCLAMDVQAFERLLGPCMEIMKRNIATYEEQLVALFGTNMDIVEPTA
Protocol: Die Substanz 18882 (FMP-API-1) aktiviert PKA in vitro. Das Experiment wurde wie in Abb. 24 dargestellt durchgeführt. Hier wurde zusätzlich mit AKAP18δ inkubiert. Katalytische Untereinheiten der PKA wurden in An- oder Abwesenheit von regulatorischen RIIβ-Untereinheiten mit der Substanz 18882 (FMP-API-1; 1 mM) inkubiert. Die Aktivierung der PKA wurde anhand der Phosphorylierung des fluoreszierenden Substratpeptids Peptag verfolgt und quantifiziert. Die semiquantitative Analyse der Peptag-Peptidphosphorylierung wurde densitometrisch vorgenommen (Mittelwerte ± SEM). Die Gegenwart des AKAP hat einen geringen zusätzlich Einfluß auf den Effekt der Substanz 18882.

[5] = system: neonatalen Kardiomyozyten aus der Ratte; assay: cAMP level in neonatal cardiomyocytes, radioimmunoassay (RIA); format: cell-based; details: substances 50 µM in the presence of Isoproterenol 100 nM
Protocol: as §1, with “18882 (FMP-API-1), 1004, 1010, 1016, 1020, 1021” for “1025, 1026, 1027”, “1023” for “1028”, “nM),” for “nM) oder”, “µM) oder mit Forskolin” for “µM)”, “Radioimmuno-Assay (RIA)” for “einen ELISA-basierten Assay”

Phopholamban (PLB) = assay: Phospholamban phosphorylation in neonatal cardiomyocytes (Western blot); format: cell-based; details: 300 µM for 5 min; p-PLB relative to Calsequestrin
Protocol: Die Zellen wurden mit DMSO (control), dem β-Adrenozeptoragonisten Isoproterenol (ISO) oder dem AKAP-PKA-Interaktionshemmer FMP-API-1 bzw. dessen Derivaten (300 µM) für 5 min. inkubiert, anschließend lysiert und im Western Blot wurde phosphoryliertes Phospholamban (p-PLB) mittels eines spezifischen anti-Phospholambanantikörpers detektiert. Calsequestrin, ein Protein des sarkoplasmatischen Retikulums, dient als Ladungskontrolle. Für die Quantifizierung (densitometrische Auswertung) wurde die p-PLB-Menge auf die Menge von Calsequestrin bezogen. Angegeben sind relative densitometrische Einheiten (RDU; Mittelwerte ± SEM, drei unabhängige Experimente).

[6] = system: kultivierten adulten Kardiomyozyten; assay: Contractility of cultured adult cardiomyocytes (Fura-2, field stimulation); format: cell-based; details: 10µM; calcium fluxes and cell shortening parameters
Protocol: Die Substanzen 18882 (FMP-API-1) und 1016 steigern die Kontraktilität an kultivierten adulten Kardiomyozyten (positiv inotroper Effekt). Die Zellen wurden isoliert, mit Fura-2 beladen und einer Feldstimulation ausgesetzt. Bestimmt wurden die Calciumfluxe und Zellverkürzungsparameter (cell shortening parameters) unter basalen Bedingungen und in Gegenwart von DMSO, Isoproterenol , FMP-API-1 (10µM) oder 1016 (10µM). Dargestellt sind Mittelwerte ± SEM.

Rattenherzen = assay: Langendorff isolated heart: left ventricular pressure, contraction and relaxation rates; set-up: species or system Ratte; details: perfused rat hearts, 10 µM, n ≥ 8 hearts per condition
Protocol: Bestimmung der linksventrikulären Druckentwicklung, der maximalen Kontraktions- (CR) und Relaxationsraten (RR) von Rattenherzen (in %) in einer Langendorff-Herz-Apparatur.
zeigt den Einfluss von Isoproterenol, DMSO, den Substanzen 1016, 1020 und 1021 auf die relative Zellgröße der Kardiomyozyten bezogen auf die durchschnittliche Zellgröße von Kontrollzellen (%). Kardiomyozyten wurden für 48h entweder unbehandelt belassen oder mit 15 µM Isoproterenol als Kontrollen inkubiert. Da die Kardiomyozyten zusätzlich zu der Substanz mit höchstens 0,1% DMSO inkubiert wurden, wurden Kardiomyozyten nur mit 0,1% für 48h inkubiert. Des Weiteren wurde ein möglicher Effekt von DMSO auf die Isoproterenolinduzierte Hypertrophie untersucht und die Zellen demnach mit 0,1% DMSO für 20 min präinkubiert und anschließend mit 15 µM Isoproterenol für 48 h inkubiert. Außerdem wurden Kardiomyozyten mit den Substanzen 1016, 1020 und 1021 in den Konzentrationen 3, 10, 30, 50 oder 75 µM für 48 h ohne Isoproterenol inkubiert. Des Weiteren wurden Kardiomyozyten mit den Substanzen 1016, 1020 und 1021 in den Konzentrationen 3, 10, 30, 50 oder 75 µM präinkubiert. Dann wurde Isoproterenol (15 µM) zu den Endkonzentrationen von 3, 10, 30, 50 oder 75 µM zugegeben und die Kardiomyozyten damit für 48 h inkubiert. Nach der Inkubation mit den Substanzen wurde α-Aktinin immunfluoreszenzmikroskopisch dargestellt. […]

[7] = target: Bindung von RIIα an Peptide, die aus der PKA-Bindedomäne von AKAP18δ abgeleitet sind (AKAP18δ-L314E) (Homo sapiens, UniProt P13861); assay: Biacore: inhibition of RIIα binding to immobilised peptide AKAP18δ-L314E; details: for inhibition at 100 µM: read-out: maximale Hemmung (RIIα-Bindung an das Peptid AKAP18δ-L314E); for Hemmung der Interaktion (RIIα-Bindung an das Peptid AKAP18δ-L314E): preincubation of RIIα for 2 h
Sequence of Bindung von RIIα an Peptide, die aus der PKA-Bindedomäne von AKAP18δ abgeleitet sind (AKAP18δ-L314E) (P13861 whole entry, stated change not applied): as the sequence (P13861 whole entry) above
Description: Für das Experiment wurden Oberflächen mit dem Peptid beschichtet, mit RIIα-Untereinheiten inkubiert und die Reaktion in Biacore-Messungen verfolgt.

PKA [8] = assay: PKA activation in neonatal cardiomyocytes (Peptag phosphorylation); format: cell-based, Ratte; details: 300µM for 30 min, densitometry
Protocol: (§2) Die zeigt, dass die Substanzen 1016,1020,1021 und 1027 PKA in neonatalen Kardiomyozyten aus der Ratte aktivieren. Die Zellen wurden mit DMSO (Kontrolle), die Substanzen in 300µM Konzentrationen, oder dem Adenylylzyklaseaktivator Forskolin für 30 min inkubiert. Die Aktivierung der PKA wurde anhand der Phosphorylierung des fluoreszierenden Substratpeptids Peptag verfolgt und quantifiziert. Die semiquantitative Analyse der Peptag-Peptidephosphorylierung wurde densitometrisch vorgenommen. Angegeben sind relative densitometrische Einheiten (RDU; Mittelwerte ± SD).
as §2, with “zeigt,” for “Die zeigt,”, “Forskolin (FSK)” for “Forskolin”

Row | SMILES | Bindungen des Peptids Ht31 und der Substanz an RIIα (RIIα) | Bindung an RIIα (RIIα) | cAMP-Spiegel [1] | Hemmung der Interaktionen von regulatorischen RII-Untereineinheiten der PKA (RIIα und β) mit AKAP150, Yotiao und AKAP18δ [2] | Oligomerisierung (Oligomers) von AKAP18δ und regulatorischen RIIα- und RIIβ-Untereinheiten [3] | Aktivierung der PKA in vitro (PKA [4]) | cAMP-Spiegel [5] | Phosphorylierung von Phopholamban (PLB) (Phopholamban (PLB)) | Kontraktilität (positiv inotroper Effekt) [6] | Zunahme der gemessenen Parameter (linksventrikuläre Druckentwicklung, maximale Kontraktions- (CR) und Relaxationsraten (RR)) (Rattenherzen) | inhibition at 100 µM ([7]; concentration 100 µM) | Hemmung der Interaktion (RIIα-Bindung an das Peptid AKAP18δ-L314E) [7] | Aktivierung der PKA in neonatalen Kardiomyozyten (PKA [8]) | inhibition at 100 µM [7]
1 | O=C(c1ccc(O)c(O)c1)c1ccc(O)c(O)c1 [Verbindung 1028, Bis-(3,4-dihydroxy-phenyl)-methanon] | additiv | konzentrationsabhängigen Bindung | steigern |  |  |  |  |  |  |  |  |  |  | 
2 | Nc1cc(Cc2ccc(O)c(N)c2)ccc1O [Verbindung 18882, 3,3'-Diamino-4,4'-dihydroxydiphenylmethan, reference compound] |  |  |  | hemmen | induzieren die Oligomerisierung | aktiviert | steigern | induzieren eine Zunahme | steigern | ~17% |  |  |  | 
3 | Nc1cc(Cc2ccc(O)cc2)ccc1O [Verbindung 1016, 3-Amino-4,4'-dihydroxydiphenylmethan] |  |  |  | hemmen | induzieren die Oligomerisierung |  | steigern | induzieren eine Zunahme | steigern |  | ~60% | ~50% | aktivieren | 
4 | COc1ccc(Cc2ccc(OC)c(N)c2)cc1N [Verbindung 1030] |  | konzentrationsabhängigen Bindung |  |  |  |  |  |  |  |  |  |  |  | 
5 | CC(c1ccc(O)cc1)c1ccc(O)c(N)c1 (stereo not shown) [Verbindung 1021, 3-Amino-1,1-bis-(4-hydroxyphenyl)-ethan] |  |  |  | hemmen | induzieren die Oligomerisierung |  | steigern | induzieren eine Zunahme |  |  |  | ~40% | aktivieren | ~50%
6 | Oc1ccc(Cc2ccccc2)cc1O [Verbindung 1027, 4-Benzyl-pyrocatechol] | additiv | konzentrationsabhängigen Bindung | steigern |  |  |  |  |  |  |  |  |  | aktivieren | 
7 | CC(c1ccc(O)c(N)c1)c1ccc(O)c(N)c1 [Verbindung 1020, 1,1-Bis-(3-Amino-4-hydroxyphenyl)-ethan] |  |  |  | hemmen | induzieren die Oligomerisierung |  | steigern | induzieren eine Zunahme |  |  |  | ~50% | aktivieren | ~50%
